Measurements reported in patent US7943606B2, “Compositions and methods to control abnormal cell growth” (CanCure Laboratories, LLC, priority 2005, dated 2011).
“And” between values parts separate entries of the source, which are not always exact repeats. Identical values can stand only once.

Key:
[1] = test system: HaCaT keratinocytes; assay: Viability of HaCaT keratinocytes; assay type: cell-based
Method: (§1) To quantify cell death, around the time when significant and characteristic morphological changes took place, cells were pulse-labeled for 10 minutes with [^3H]thymidine to measure DNA activity as described elsewhere [Tomono, M. and Kiss, Z. (1995), “Ethanol enhances the stimulatory effects of insulin and insulin-like growth factor-I on DNA synthesis in NIH 3T3 fibroblasts,” Biochem. Biophys. Res. Commun. 208, 63-67]. Also, cells were collected as suspensions using trypsin, an established method in cell biology, followed by re-plating of cells in fresh tissue culture medium. If no viable cells were obtained after one week in culture, it meant that the cells at the time of re-plating were dead. Survival values obtained with untreated cells were considered 100%. For the determination of relative number of viable cells after treatments, in most cases the MTT assay was used. This calorimetric assay is based on the ability of living cells, but not dead cells, to reduce 3-(4,5-dimethyl thiazol-2-yl)-2,5-diphenyltetrazolium bromide [Carmichael, J, De Graff, W. G., Gazdar, A. F., Minna, J. D. and Mitchell, J. B. (1987), “Evaluation of tetrazolium-based semi-automated calorimetric assay: Assessment of chemosensitivity testing,” Cancer Res. 47, 936-942]. For this assay, cells were plated in 96-well plates, and the MTT assay was performed both in untreated and treated cell cultures. The MTT assay also was performed at the start of treatments to allow assessment of proliferation rates in the control and treated cell cultures.
HaCaT keratinocytes, frequently used immortalized model cells for studying psoriatic keratinocytes, and HTB-157 human fetus lung fibroblasts were cultured in 10% FBS-containing Dulbecco's modified Eagle's medium (DMEM). Cells were distributed in 96-well plates; when cells were 50-60% confluent, the medium was changed for fresh 10% serum-containing medium, followed by incubations for 48 hours in the absence (□) or presence of 50 μM CCDTHT ? , or 100 μM CCDTHT (▪). The MTT assay was used to determine cell viability. […]

[2] = test system: AN3CA cells; assay: Viability of AN3CA endometrial adenocarcinoma cells (MTT assay); assay type: cell-based, human; settings: 100 μM, 72 hours
Method: To quantify cell death, around the time when significant and characteristic morphological changes took place, cells were pulse-labeled for 10 minutes with [^3H]thymidine to measure DNA activity as described elsewhere [Tomono, M. and Kiss, Z. (1995), “Ethanol enhances the stimulatory effects of insulin and insulin-like growth factor-I on DNA synthesis in NIH 3T3 fibroblasts,” Biochem. Biophys. Res. Commun. 208, 63-67]. Also, cells were collected as suspensions using trypsin, an established method in cell biology, followed by re-plating of cells in fresh tissue culture medium. If no viable cells were obtained after one week in culture, it meant that the cells at the time of re-plating were dead. Survival values obtained with untreated cells were considered 100%. For the determination of relative number of viable cells after treatments, in most cases the MTT assay was used. This calorimetric assay is based on the ability of living cells, but not dead cells, to reduce 3-(4,5-dimethyl thiazol-2-yl)-2,5-diphenyltetrazolium bromide [Carmichael, J, De Graff, W. G., Gazdar, A. F., Minna, J. D. and Mitchell, J. B. (1987), “Evaluation of tetrazolium-based semi-automated calorimetric assay: Assessment of chemosensitivity testing,” Cancer Res. 47, 936-942]. For this assay, cells were plated in 96-well plates, and the MTT assay was performed both in untreated and treated cell cultures. […]

[3] = test system: MRC-5 cells; assay: Viability of MRC-5 normal lung fibroblasts (MTT assay); assay type: cell-based; settings: Homo sapiens, MRC5; 10,000 cells per well (25-35% confluent), 72 hours, MTT; read-out: IC50 values, Antiproliferative, MRC-5
Method: as §1
(§2) The MRC-5 cell line is derived from normal lung tissue of a […] fetus. MRC-5 cells were maintained and treated in Eagles Medium with Hanks' BSS containing 10% fetal bovine serum. The T47D cells were maintained and treated in RPMI 1640 medium supplemented with 0.2 IU bovine insulin and 10% fetal bovine serum. The CaOV-3 human ovarian cancer cells were cultured in Dulbecco's modified Eagle's medium containing 10% fetal bovine serum. The cells were seeded in 96-well plates either at 10,000 cells per well or 30,000 cells per well to examine the antiproliferative and cytotoxic effects of various CC compounds, respectively. The cells were incubated for 24 hours, then the medium was changed followed by the treatments of cultures 2 hours after the medium change. At this point, cell cultures seeded at 10,000 cells per well and 30,000 cells per well were 25-35% and 80-90% confluent, respectively. Incubations were continued for 72 hours followed by the MTT assay. The data, shown in TABLE 2, indicate the inhibitory concentrations of CC compounds (IC50) required for 50% decrease in the number of viable cells. These numbers are calculated from the mean of 4 incubations in one experiment (the experiment was repeated once with similar results).

[4] = as above; assay type: cell-based; settings: human, MRC-5 normal lung fibroblasts; 30,000 cells per well (80-90% confluent), 72 hours, MTT; read-out: IC50 values, Cytotoxic, MRC-5
Method: as §1, §2

[5] = test system: HL-60, HT-168, PC-3 and T47D human tumor xenografts; assay: Growth of HL-60, HT-168, PC-3 and T47D human tumor xenografts in mice; assay type: in vivo, mouse
Method: Tumor volume was calculated according to the generally accepted formula: V=a^2×b×π/6, where “a” and “b” mean the shortest and longest diameter, respectively, of the measured tumor.

## CC[N+](C)(CC)CCOCc1ccc2sc3ccccc3c(=O)c2c1.[I-] [CCDTHT, N,N-diethyl-N-methyl-2-[(9-oxo-9H-thioxanthen-2-yl)methoxy]-ethanaminium iodide]
[1]; 50-100 μM, 48 hours, MTT
  reduction in the number of viable HaCaT cells: 85-98% and 85-100%
[1]; Homo sapiens, HaCaT, 48 h, read-out: inhibition of DNA synthesis, HaCaT
  inhibition at 100 µM: ~95%
[1]; re-plated after treatment, fresh medium for 1 week
  viable cells after re-plating of treated HaCaT cells: no viable cells were found
[2]
  decrease in the number of viable cells versus 0.5 mM HC-3, AN3CA: much greater decreases in the number of viable cells compared to 0.5 mM HC-3
[3]
  IC50: 90 µM
[4]
  IC50 at 72 h: 119 µM
[5]; 50-400 μmole s.c. once daily
  weight loss: In none of the cases did CCDTHT cause significant weight loss
[5]; 200-400 μmole s.c. once daily
  growth of each tumor (HL-60, HT-168, PC-3, T47D): considerably reduced
